From PMC7366380, “Discovery of a Potent and Selective Covalent Inhibitor and Activity-Based Probe for the Deubiquitylating Enzyme UCHL1, with Antifibrotic Activity” (Journal of the American Chemical Society, 2020)
Where “and” joins values, the source holds several entries; their conditions need not be identical. Equal entries are not always repeated.

Assays:
Assay in all cases: Quantitative chemical proteomic profiling of ABP 2 in HEK293 cells: other DUBs and proteins across the proteome
[1] = target: T1, DUBs and other proteins in HEK293 cells (Homo sapiens, UniProt P45974); conditions: USP5, listed as ABP 2
T1 sequence (P45974 1-858): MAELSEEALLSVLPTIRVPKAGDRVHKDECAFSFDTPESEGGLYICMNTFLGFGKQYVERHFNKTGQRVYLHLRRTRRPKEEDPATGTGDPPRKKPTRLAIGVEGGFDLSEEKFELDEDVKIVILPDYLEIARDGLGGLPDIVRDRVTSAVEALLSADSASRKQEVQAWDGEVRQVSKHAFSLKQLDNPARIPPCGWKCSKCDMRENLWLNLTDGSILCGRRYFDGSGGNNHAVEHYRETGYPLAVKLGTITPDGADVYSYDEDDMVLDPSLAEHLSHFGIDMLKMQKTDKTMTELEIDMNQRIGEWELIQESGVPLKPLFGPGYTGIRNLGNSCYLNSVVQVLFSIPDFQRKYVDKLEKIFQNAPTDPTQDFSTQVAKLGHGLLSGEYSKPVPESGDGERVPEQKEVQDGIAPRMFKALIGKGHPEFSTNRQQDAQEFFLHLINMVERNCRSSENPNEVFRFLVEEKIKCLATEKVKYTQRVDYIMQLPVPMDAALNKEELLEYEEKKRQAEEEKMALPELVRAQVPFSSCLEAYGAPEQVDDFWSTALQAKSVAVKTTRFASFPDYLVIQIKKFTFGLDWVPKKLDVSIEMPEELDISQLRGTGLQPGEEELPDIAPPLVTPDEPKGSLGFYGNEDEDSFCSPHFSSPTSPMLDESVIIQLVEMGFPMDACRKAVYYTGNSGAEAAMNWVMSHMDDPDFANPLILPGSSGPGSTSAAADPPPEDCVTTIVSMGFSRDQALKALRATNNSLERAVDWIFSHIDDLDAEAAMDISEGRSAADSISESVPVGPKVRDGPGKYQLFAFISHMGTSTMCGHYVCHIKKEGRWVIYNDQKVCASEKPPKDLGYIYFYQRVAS

[2] = target: DUBs and other proteins in HEK293 cells (Homo sapiens, UniProt Q96FW1); conditions: OTUB1, listed as ABP 2
Sequence of DUBs and other proteins in HEK293 cells (Homo sapiens, UniProt Q96FW1) (Q96FW1 whole entry): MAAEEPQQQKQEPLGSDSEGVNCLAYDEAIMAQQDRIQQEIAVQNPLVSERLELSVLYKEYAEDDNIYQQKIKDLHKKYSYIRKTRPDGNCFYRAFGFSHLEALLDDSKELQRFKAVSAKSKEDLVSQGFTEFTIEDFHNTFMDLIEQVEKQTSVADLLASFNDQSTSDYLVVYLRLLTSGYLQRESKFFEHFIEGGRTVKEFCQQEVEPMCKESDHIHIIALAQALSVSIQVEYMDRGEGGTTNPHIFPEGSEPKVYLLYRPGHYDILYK

[3] = target: T2, DUBs and other proteins in HEK293 cells (Homo sapiens, UniProt Q9Y4E8); conditions: USP15, listed as ABP 2
T2 sequence (Q9Y4E8 1-981): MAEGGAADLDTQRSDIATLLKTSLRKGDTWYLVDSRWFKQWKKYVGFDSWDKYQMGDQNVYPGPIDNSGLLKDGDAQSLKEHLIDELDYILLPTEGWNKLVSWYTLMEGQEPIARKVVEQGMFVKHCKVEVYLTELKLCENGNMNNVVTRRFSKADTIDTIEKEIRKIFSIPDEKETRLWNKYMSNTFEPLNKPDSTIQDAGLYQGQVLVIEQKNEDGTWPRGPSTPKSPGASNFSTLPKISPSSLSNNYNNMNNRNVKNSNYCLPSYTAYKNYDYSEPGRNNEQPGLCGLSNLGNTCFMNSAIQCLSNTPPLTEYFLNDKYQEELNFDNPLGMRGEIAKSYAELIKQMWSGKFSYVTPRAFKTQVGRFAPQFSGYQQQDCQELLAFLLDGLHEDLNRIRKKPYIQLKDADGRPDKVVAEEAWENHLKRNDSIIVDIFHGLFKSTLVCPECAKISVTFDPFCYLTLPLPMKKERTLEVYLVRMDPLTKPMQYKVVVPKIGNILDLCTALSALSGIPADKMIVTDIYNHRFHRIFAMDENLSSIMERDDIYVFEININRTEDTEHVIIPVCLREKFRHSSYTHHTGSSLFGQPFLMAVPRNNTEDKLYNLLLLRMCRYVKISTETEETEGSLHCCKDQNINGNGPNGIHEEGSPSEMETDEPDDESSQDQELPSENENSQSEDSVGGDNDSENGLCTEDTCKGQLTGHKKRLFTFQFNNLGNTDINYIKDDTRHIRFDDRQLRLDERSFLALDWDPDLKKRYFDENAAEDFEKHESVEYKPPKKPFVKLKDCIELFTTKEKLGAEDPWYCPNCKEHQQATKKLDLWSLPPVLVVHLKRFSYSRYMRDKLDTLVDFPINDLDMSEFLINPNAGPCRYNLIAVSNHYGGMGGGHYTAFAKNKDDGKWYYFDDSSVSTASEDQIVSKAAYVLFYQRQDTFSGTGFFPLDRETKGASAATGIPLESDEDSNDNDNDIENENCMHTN

[4] = 200 nM, 180 min, replicates A,C

- Log2 reporter intensity values (Log2FC, DMSO substract) ([1]; 2 nM, 60 min, replicates A-C): -0.1407 and 0.0289 and 0.1099
- Log2 reporter intensity values (Log2FC, DMSO substract) ([1]; 20 nM, 10 min, replicates B,C): 0.1281
- Log2 reporter intensity values (Log2FC, DMSO substract) ([1]; 20 nM, 60 min, replicates A-C): 0.06053 and 0.195 and 0.2148
- Log2 reporter intensity values (Log2FC, DMSO substract) ([1]; 20 nM, 180 min, replicates A-C): 0.2725 and 0.06742 and 0.2092
- Log2 reporter intensity values (Log2FC, DMSO substract) ([1]; 200 nM, 10 min, replicates B,C): 0.2092 and 0.2483
- Log2 reporter intensity values (Log2FC, DMSO substract) ([1]; 200 nM, 60 min, replicates A-C): 0.08791 and 0.2394
- Log2 reporter intensity values (Log2FC, DMSO substract) [1, 4]: 0.2625 and 0.2347
- Log2 reporter intensity values (Log2FC, DMSO substract) ([2]; 2 nM, 60 min, replicates A-C): 0.1769 and 0.1167 and 0.05908
- Log2 reporter intensity values (Log2FC, DMSO substract) ([2]; 20 nM, 10 min, replicates B,C): 0.07104
- Log2 reporter intensity values (Log2FC, DMSO substract) ([2]; 20 nM, 60 min, replicates A-C): 0.004019
- Log2 reporter intensity values (Log2FC, DMSO substract) ([2]; 20 nM, 180 min, replicates A-C): -0.1034 and 0.07381 and 0.1015
- Log2 reporter intensity values (Log2FC, DMSO substract) ([2]; 200 nM, 10 min, replicates B,C): 0.1233 and 0.1033
- Log2 reporter intensity values (Log2FC, DMSO substract) ([2]; 200 nM, 60 min, replicates A-C): 0.176 and 0.4057 and 0.2275
- Log2 reporter intensity values (Log2FC, DMSO substract) [2, 4]: 0.3761 and 0.4198
- Log2 reporter intensity values (Log2FC, DMSO substract) ([3]; 2 nM, 60 min, replicates A-C): 0.1138 and 0.004511 and -0.04471
- Log2 reporter intensity values (Log2FC, DMSO substract) ([3]; 20 nM, 10 min, replicates B,C): 0.2038 and 0.1797
- Log2 reporter intensity values (Log2FC, DMSO substract) ([3]; 20 nM, 60 min, replicates A-C): 0.04003 and 0.2301 and -0.05461
- Log2 reporter intensity values (Log2FC, DMSO substract) ([3]; 20 nM, 180 min, replicates A-C): -0.06212 and 0.248 and 0.23
- Log2 reporter intensity values (Log2FC, DMSO substract) ([3]; 200 nM, 10 min, replicates B,C): -0.05955 and -0.05362
- Log2 reporter intensity values (Log2FC, DMSO substract) ([3]; 200 nM, 60 min, replicates A-C): 0.07483 and 0.06943 and 0.1943
- Log2 reporter intensity values (Log2FC, DMSO substract) [3, 4]: 0.004999 and 0.2331
SMILES: C#Cc1cnc2[nH]cc(-c3cccc4c3CCN4C(=O)[C@@H]3CCCN3C#N)c2c1 [Compound 2]
